Test results: ChEMBL document CHEMBL5252520, “Inhibition of phospho-MurNAc-pentapeptide translocase (MraY) by nucleoside natural product antibiotics, bacteriophage ϕX174 lysis protein E, and cationic antibacterial peptides” (Bioorg Med Chem, 2016)
Values after ≈ are worked out from the molar mass of the structure shown. Residues, ends and D or L forms follow the SMILES beside them.

How the values were obtained:
[1] = target: T1, Decaprenyl-phosphate N-acetylglucosaminephosphotransferase (Mycolicibacterium smegmatis (strain ATCC 700084 / mc(2)155) (Mycobacteriumsmegmatis), UniProt A0R211); assay: Inhibition of Mycobacterium smegmatis ATCC 607 WecA
T1 sequence (A0R211 whole entry): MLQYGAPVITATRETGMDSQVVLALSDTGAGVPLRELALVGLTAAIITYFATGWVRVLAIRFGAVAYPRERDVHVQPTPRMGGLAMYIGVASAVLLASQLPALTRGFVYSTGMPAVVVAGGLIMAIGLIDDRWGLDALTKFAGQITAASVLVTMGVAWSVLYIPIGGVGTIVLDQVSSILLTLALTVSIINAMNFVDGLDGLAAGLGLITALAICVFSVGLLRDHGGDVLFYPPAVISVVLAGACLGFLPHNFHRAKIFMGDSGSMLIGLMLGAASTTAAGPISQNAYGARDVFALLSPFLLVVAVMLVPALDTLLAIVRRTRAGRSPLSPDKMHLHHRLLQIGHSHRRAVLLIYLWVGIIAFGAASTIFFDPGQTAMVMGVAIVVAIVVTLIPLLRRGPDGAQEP

[2] = Inhibition of Campylobacter jejuni PgIC expressed in Escherichia coli by affinity chromatography
Pseudomonas aeruginosa [3] = assay: Antibacterial activity against Pseudomonas aeruginosa H103 assessed as reduction in bacterial growth; format: functional
Pseudomonas aeruginosa [4] = assay: Antibacterial activity against Pseudomonas aeruginosa H103 assessed as inhibition of bacterial growth; format: functional
[5] = Inhibition of bacterial MraY; design: species or system Bacteria
Escherichia coli = assay: Antibacterial activity against Escherichia coli assessed as inhibition of bacterial growth; format: functional
[6] = target: T2, Phospho-N-acetylmuramoyl-pentapeptide-transferase (Escherichia coli, UniProt E2QF15); assay: Inhibition of MraY in Escherichia coli
T2 sequence (E2QF15 whole entry): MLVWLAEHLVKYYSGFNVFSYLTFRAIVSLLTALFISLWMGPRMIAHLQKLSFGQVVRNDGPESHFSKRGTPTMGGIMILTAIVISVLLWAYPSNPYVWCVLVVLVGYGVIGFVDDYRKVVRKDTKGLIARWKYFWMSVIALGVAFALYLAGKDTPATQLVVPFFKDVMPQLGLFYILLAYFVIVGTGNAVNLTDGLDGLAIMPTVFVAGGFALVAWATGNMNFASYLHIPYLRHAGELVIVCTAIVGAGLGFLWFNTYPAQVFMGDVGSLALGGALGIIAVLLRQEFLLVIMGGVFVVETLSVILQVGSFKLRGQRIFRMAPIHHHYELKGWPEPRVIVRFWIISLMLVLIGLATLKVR

Staphylococcus aureus = assay: Antibacterial activity against Staphylococcus aureus ATCC 29213 assessed as bacterial growth inhibition; format: functional

CCCCc1ccc(NC(=O)C2=CCN(C)[C@@H]([C@H](O[C@@H]3O[C@H](CN)[C@@H](O)[C@H]3O)[C@H]3O[C@@H](n4ccc(=O)[nH]c4=O)[C@H](O)[C@@H]3O)C(=O)N2C)cc1
IC50 [1]: 0.0581 µM

CSCC[C@H](NC(=O)N[C@@H](Cc1cccc(O)c1)C(=O)O)C(=O)N[C@@H](C(=O)N/C=C1\C[C@@H](O)[C@H](n2ccc(=O)[nH]c2=O)O1)[C@H](C)N(C)C(=O)[C@@H](N)Cc1cccc(O)c1
IC50 [2]: 40 µM

CC[C@H](C)[C@H](NC(=O)[C@H](Cc1c[nH]c2ccccc12)NC(=O)[C@@H](NC(=O)[C@@H](NC(=O)[C@H](CCCNC(=N)N)NC(=O)[C@H](Cc1c[nH]c2ccccc12)NC(=O)[C@H](Cc1c[nH]c2ccccc12)NC(=O)[C@@H](N)CCCNC(=N)N)[C@@H](C)CC)C(C)C)C(=O)N[C@@H](CCCCN)C(=O)N[C@@H](Cc1c[nH]c2ccccc12)C(=O)N[C@@H](Cc1c[nH]c2ccccc12)C(=O)N[C@@H](CCCNC(=N)N)C(=O)O (H-RWWRIVWIKWWR-OH)
MIC (Pseudomonas aeruginosa [3]): 31 µg/mL (≈ 16.6 µM) | MIC (Pseudomonas aeruginosa [4]): 31 µg/mL (≈ 16.6 µM) | IC50 [5]: 40 µM | MIC (Escherichia coli): 4 µg/mL (≈ 2.14 µM)

CC[C@@H](C)[C@H](NC(=O)[C@H](CC(C)C)NC(=O)[C@H](CC(C)C)NC(=O)[C@H](CO)NC(=O)[C@@H]1CCCN1C(=O)[C@H](CC(C)C)NC(=O)[C@H](CC(C)C)NC(=O)[C@H](CC(C)C)NC(=O)[C@H](CO)NC(=O)[C@H](CC(C)C)NC(=O)[C@H](CC(C)C)NC(=O)[C@H](CC(C)C)NC(=O)[C@H](CC(C)C)NC(=O)[C@H](Cc1ccccc1)NC(=O)[C@H](C)NC(=O)[C@H](CC(C)C)NC(=O)[C@@H](NC(=O)[C@H](CC(=O)O)NC(=O)[C@H](Cc1c[nH]c2ccccc12)NC(=O)[C@H](CC(C)C)NC(=O)[C@@H](NC(=O)[C@H](Cc1c[nH]c2ccccc12)NC(=O)[C@H](CCCNC(=N)N)NC(=O)[C@@H](NC(=O)[C@@H](N)CCSC)C(C)C)[C@@H](C)O)[C@@H](C)O)C(=O)N[C@@H](CCSC)C(=O)N[C@@H](Cc1ccccc1)C(=O)N[C@H](C(=O)N1CCC[C@H]1C(=O)N[C@@H](CO)C(=O)N[C@H](C(=O)N[C@@H](Cc1ccccc1)C(=O)N[C@@H](CCCCN)C(=O)N[C@@H](CCCNC(=N)N)C(=O)N1CCC[C@H]1C(=O)N[C@H](C(=O)N[C@@H](CO)C(=O)O)C(C)C)[C@@H](C)O)[C@@H](C)CC
IC50 [6]: 0.8 µM

CC(C)C[C@H](NC(=O)CNC(=O)[C@H](Cc1c[nH]c2ccccc12)NC(=O)[C@@H](N)CCCNC(=N)N)C(=O)N[C@@H](Cc1c[nH]c2ccccc12)C(=O)O (H-RWGLW-OH)
IC50 [5]: 590 µM | MIC (Staphylococcus aureus): 30 µg/mL (≈ 41.9 µM)
